{"source": "patent US6818407B2", "about": "“Anti-endotoxic antimicrobial cationic peptides and methods of use therfor” (priority 1998, dated 2004)", "key": {"V. anguillarum [1]": {"system": "V. anguillarum", "test": "Single intraperitoneal injection of peptide along with V. anguillarum into juvenile coho salmon", "type": "in vivo", "settings": "single injection of peptide along with bacteria; bacteria alone control 60%", "description": "(§1) Fish loss from disease is a significant problem in aquaculture worldwide. However, expression of natural cationic peptide genes in fish could increase disease resistance because of continual cellular production of the antimicrobial peptides. In order to choose optimal peptides for transgenic fish, the antimicrobial activities of some cationic peptides were determined by testing minimum inhibitory concentrations (MICs) in vitro. […] The in vivo effect of CEME was examined by intraperitoneal injection of the peptide along with V. anguillarum into juvenile coho salmon. Fish in the bacteria alone control group had 60% mortality, while fish receiving peptide and bacteria injections had 82% mortality. […] Therefore, constant delivery of CEME and Pleurocidin-CN using intraperitoneal mini-osmotic pumps were carried out. Twelve days after pump implantation, the fish received intraperitoneal injections of V. anguillarum. The CEME and pleurocidin-CN pump group had longer survival time and lower mortalities than the control groups (50% Vs. 13%, and 75% Vs. 5%, respectively). Indolicidin transgenic cutthroat trout were made using a construct including an MT promoter, growth hormone signal, pre-region, indolicidin, and terminator. Transgenic individuals were identified by serum analysis using PCR with construct-specific oligonucleotide primers. […]"}, "V. anguillarum [2]": {"system": "V. anguillarum", "test": "Protection of coho salmon, peptide delivered constantly by intraperitoneal mini-osmotic pump", "type": "in vivo, juvenile coho salmon", "settings": "CEME by intraperitoneal mini-osmotic pump; control group 50%", "description": "Constant delivery of peptide P-CN using intraperitoneal mini-osmotic pumps was carried out. Briefly, juvenile coho salmon were divided into three treatment groups: A. Bacterial injection alone (12 fish). B. Fish saline osmotic pump and bacterial injection (12 fish). C. A combination of P-CN osmotic pump and bacterial injection (19 fish). The fish were anaesthetized and implanted (peritoneal cavity) with mini-osmotic pumps having a pumping rate of 0.13 µl/hour. Heaters were placed in the tanks to keep the water temperature between 12 and 13° C. Pumps were filled with concentrated P-CN to deliver approximately […] peptide to fish over a 30-day period. Twelve days after pump implantation, the fish received intraperitoneal injections of V. anguillarum ([…]). Mortalities were first noticed on day 3 for the group injected with bacteria alone and on day 5 for the group which received saline osmotic pumps as well as bacterial injections. However, there was no significant difference in mortality between the bacterial injection alone group and the saline osmotic pump group (67% vs. 75%). Mortalities were delayed for the P-CN osmotic pump group. The P-CN osmotic pump group had only one fish die on day 6 over the 30 days experiments with an accumulated mortality of 5%. […] Furthermore, since cationic peptides are not effective in a single treatment and constant administration is necessary, this argues for the potential success of transgenic fish expressing peptide P-CN.\nas §1, with “terminator.” for “terminator. Transgenic individuals were identified by serum analysis using PCR with construct-specific oligonucleotide primers.”"}, "S. epidermis": {"system": "S. epidermis", "test": "MIC, broth microdilution assay in polypropylene microtiter trays", "type": "cell-based", "settings": "average of three separate experiments", "in_short": "(§2)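 Read-out: OD. MIC = lowest peptide conc. giving no OD change over the defined time.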"}, "S. aureus": {"system": "S. aureus", "test": "MIC, broth microdilution assay in polypropylene microtiter trays", "type": "cell-based", "settings": "average of three separate experiments", "in_short": "as §2"}, "S. aureus K147": {"system": "S. aureus K147", "test": "MIC, broth microdilution assay in polypropylene microtiter trays", "type": "cell-based", "settings": "average of three separate experiments", "in_short": "as §2"}, "E. coli [3]": {"system": "E. coli", "test": "MIC, broth microdilution assay in polypropylene microtiter trays", "type": "cell-based", "settings": "average of three separate experiments", "in_short": "as §2"}, "P. aeruginosa": {"system": "P. aeruginosa", "test": "MIC, broth microdilution assay in polypropylene microtiter trays", "type": "cell-based", "settings": "average of three separate experiments", "in_short": "as §2"}, "[4]": {"system": "Pseudomonas aeruginosa PAO", "test": "Chronic Pseudomonas aeruginosa lung infection in rats, aerosol treatment", "type": "in vivo", "settings": "lungs, quantitative culture; aerosol 10 ml of 5 mg/ml once daily for three days; untreated control 1.2 × 10^6", "description": "Fifteen animals were utilized in these experiments (5 animals in each of three groups). All animals were inoculated intratracheal with 10^4 Pseudomonas aeruginosa PAO in agar beads. Three days following inoculation, rats were exposed to aerosol preparations from and Aero-Tech II nebulizer (CIS-US, Bedford, Mass.). The nebulizer was operated at 45 psi, with a flow rate of 10 L/min and contained 10 ml of the preparation to be aerosolized. The 10 ml volume was dispensed in 25-30 minutes. Animals were treated once daily for three days; control animals received daily exposure to 10 mls of 10 mM sodium citrate (pH 7.0); one treatment group received daily exposure to 10 mls of 10 mM sodium citrate (pH 7.0) containing 5 mg/ml of CM3; one treatment group received daily exposure to 10 mls of 10 mM sodium citrate (pH 7.0) containing 5 mg/ml of Cpα2. Animals were sacrificed on day 3, at one hour following the last exposure. The lungs of the treatment and control animals were removed for quantitative culture."}, "[5]": {"system": "β-lactamase derepressed mutant (H547) of P. aeruginosa", "test": "microbe, parasite or virus in culture", "type": "cell-based", "settings": "P. aeruginosa H547", "in_short": "(§3)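 Checkerboard titration in Mueller Hinton broth, peptide against carbenicillin or ciprofloxacin, inoculum 10 μl of 10^−4 dilution of overnight culture, 18-24 h at 37 °C. Combination MIC is the lowest concentration reducing growth >50%. FIC index = A/MIC A + B/MIC B, with ≤~0.5 synergy, 1.0 additivity, >1.0 antagonism.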"}, "[6]": {"system": "mutant (Nal B, H744) of P. aeruginosa", "test": "microbe, parasite or virus in culture", "type": "cell-based", "in_short": "as §3"}, "[7]": {"system": "Pseudomonas aeruginosa strain M2", "test": "Protection of neutropenic CD-1 mice challenged with Pseudomonas aeruginosa", "type": "in vivo", "design": "Survival post bacterial challenge, surviving mice: reference not given here", "settings": "for Survival (%) post bacterial challenge: PBS 8", "in_short": "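Neutropenia induced by three i.p. cyclophosphamide doses ([…], alternate days); mice then infected i.p. with 200-300 organisms/mouse. Peptides (200 µg/mouse = 8 mg/kg) in buffered citrate given i.p. at 30 min (single) or 30 min and 16 hrs (double) post-challenge; PBS control; mean of 2 experiments.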"}, "[8]": {"test": "Lethal endotoxemia in galactosamine-sensitized mice", "type": "in vivo, CD-1 mice", "settings": "peptide 200 μg intraperitoneal within 10 min of 10 μg LPS; 24 hours post injection; 5 mice per group; no peptide 100", "description": "To confirm this in vivo, endotoxic shock was induced by intraperitoneal injection of 10 μg of E.coli 0111:B4 LPS in phosphate-buffered saline (PBS; pH 7.2) into galactosamine-sensitized 8- to 10- week old female CD-1 mice (5 per group). In experiments involving peptides, 200 μg in 100 μl of sterile water was injected at separate intraperitoneal sites within 10 min of LPS injection. Survival was monitored at 24 hours post injection."}, "Salmonella typhi": {"system": "Salmonella typhi", "test": "Synergy study (checkerboard titration) with hen white lysozyme", "type": "cell-based"}, "E. coli [9]": {"system": "E. coli", "test": "Synergy study (checkerboard titration) with hen white lysozyme", "type": "cell-based"}, "P. aeruginosa (H103)": {"system": "P. aeruginosa (H103)", "test": "Synergy study (checkerboard titration) with hen white lysozyme", "type": "cell-based"}, "[10]": {"settings": "cationic peptide concentration, combined with lysozyme"}, "[11]": {"settings": "lysozyme concentration, combined with the peptide"}}, "note": "Marks after values point to notes of the source that are not given here. Ends that are not written are not given here.", "data": [{"molecule": "CC[C@H](C)[C@H](NC(=O)CNC(=O)[C@@H](NC(=O)[C@H](CCCCN)NC(=O)[C@H](CCCCN)NC(=O)[C@H](Cc1ccccc1)NC(=O)[C@H](CC(C)C)NC(=O)[C@H](CCCCN)NC(=O)[C@H](Cc1c[nH]c2ccccc12)NC(=O)[C@@H](N)CCCCN)[C@@H](C)CC)C(=O)NCC(=O)N[C@@H](C)C(=O)N[C@H](C(=O)N[C@@H](CC(C)C)C(=O)N[C@@H](CCCCN)C(=O)N[C@H](C(=O)N[C@@H](CC(C)C)C(=O)N[C@H](C(=O)N[C@H](C(=O)NCC(=O)N[C@@H](CC(C)C)C(=O)N1CCC[C@H]1C(=O)N[C@@H](C)C(=O)N[C@@H](CC(C)C)C(=O)N[C@H](C(=O)N[C@@H](CO)C(=O)O)[C@@H](C)CC)[C@@H](C)O)[C@@H](C)O)C(C)C)C(C)C", "note": "[CEME, reference compound]", "values": [{"measurement": "Mortality", "setting": "V. anguillarum [1]", "result": 82, "unit": "%"}, {"measurement": "Mortality, pump group", "setting": "V. anguillarum [2]", "result": 13, "unit": "%"}]}, {"molecule": "KWKKFIKSLTKSAAKTVVKTAKKPLIV [CM3]", "values": [{"measurement": "MIC S. epidermis", "setting": "S. epidermis", "result": 16, "unit": "µg/mL"}, {"measurement": "MIC S. aureus", "setting": "S. aureus", "result": ">64", "unit": "µg/mL"}, {"measurement": "MIC S. aureus K147", "setting": "S. aureus K147", "result": ">64", "unit": "µg/mL"}, {"measurement": "MIC E. coli", "setting": "E. coli [3]", "result": 1, "unit": "µg/mL"}, {"measurement": "MIC P. aeruginosa", "setting": "P. aeruginosa", "result": 5, "unit": "µg/mL"}, {"measurement": "Mean Colony Forming Units +/− S.D.", "setting": "[4]", "result": "7.4 × 10^4 +/− 6.7 × 10^4* CFU"}, {"measurement": "(B) MIC of Carb when combined with peptide", "setting": "[5]; Carbenicillin with peptide at concentration (A)", "result": 32, "unit": "µg/mL"}, {"measurement": "FIC index", "setting": "[5]; peptide + Carbenicillin, about 0.5 or less synergy, 1.0 additivity, >1.0 antagonism", "result": 0.75}, {"measurement": "MIC A MIC of Peptides", "setting": "[5]; peptide alone", "result": 2, "unit": "µg/mL"}, {"measurement": "(A) Peptide doses together with Carb", "setting": "[5]; peptide concentration in combination with Carbenicillin", "result": ".5 µg/mL"}, {"measurement": "MIC A MIC of Peptides", "setting": "[6]; peptide alone, P. aeruginosa mutant Nal B, H744 (Table 5)", "result": 2, "unit": "µg/mL"}, {"measurement": "(A) Peptide doses together with Cipro", "setting": "[6]; peptide concentration in combination with ciprofloxacin, Nal B, H744", "result": ".5 µg/mL"}, {"measurement": "Survival post bacterial challenge, surviving mice", "setting": "[7]; double dose (200 μg per mouse i.p. at 30 min and 16 hrs), 16 hr", "result": 13}, {"measurement": "Survival post bacterial challenge, surviving mice", "setting": "[7]; double dose, 24 hr", "result": 13}, {"measurement": "Survival post bacterial challenge, surviving mice", "setting": "[7]; double dose, 41 hr", "result": 11}, {"measurement": "Survival post bacterial challenge, surviving mice", "setting": "[7]; double dose, 48 hr", "result": 11}, {"measurement": "Survival post bacterial challenge, surviving mice", "setting": "[7]; double dose, 64 hr", "result": 10}, {"measurement": "Survival (%) post bacterial challenge", "setting": "[7]; double dose, 64 hr", "result": 76, "unit": "%"}, {"measurement": "Survival post bacterial challenge, surviving mice", "setting": "[7]; double dose, 72 hr", "result": 10}, {"measurement": "Survival (%) post bacterial challenge", "setting": "[7]; double dose, 72 hr", "result": 76, "unit": "%"}, {"measurement": "Survival post bacterial challenge, surviving mice", "setting": "[7]; double dose, 96 hr", "result": 8}, {"measurement": "Survival (%) post bacterial challenge", "setting": "[7]; double dose, 96 hr", "result": 61, "unit": "%"}, {"measurement": "Survival post bacterial challenge, surviving mice", "setting": "[7]; single dose (200 μg per mouse i.p. at 30 min), 16 hr", "result": 15}, {"measurement": "Survival post bacterial challenge, surviving mice", "setting": "[7]; single dose, 24 hr", "result": 15}, {"measurement": "Survival post bacterial challenge, surviving mice", "setting": "[7]; single dose, 41 hr", "result": 14}, {"measurement": "Survival post bacterial challenge, surviving mice", "setting": "[7]; single dose, 48 hr", "result": 13}, {"measurement": "Survival post bacterial challenge, surviving mice", "setting": "[7]; single dose, 64 hr", "result": 12}, {"measurement": "Survival (%) post bacterial challenge", "setting": "[7]; single dose, 64 hr", "result": 80, "unit": "%"}, {"measurement": "Survival post bacterial challenge, surviving mice", "setting": "[7]; single dose, 72 hr", "result": 11}, {"measurement": "Survival (%) post bacterial challenge", "setting": "[7]; single dose, 72 hr", "result": 73, "unit": "%"}, {"measurement": "Survival post bacterial challenge, surviving mice", "setting": "[7]; single dose, 96 hr", "result": 11}, {"measurement": "Survival (%) post bacterial challenge", "setting": "[7]; single dose, 96 hr", "result": 73, "unit": "%"}, {"measurement": "Mortality (%)", "setting": "[8]", "result": 80, "unit": "%"}, {"measurement": "FIC for combination of cationic peptide and lysozyme", "setting": "Salmonella typhi", "result": 0.75}, {"measurement": "Lowest [CP] showing synergy", "setting": "Salmonella typhi; [10]", "result": 2.61, "unit": "µg/mL"}, {"measurement": "Lowest [Lyso] showing synergy", "setting": "Salmonella typhi; [11]", "result": 250, "unit": "µg/mL"}, {"measurement": "FIC for combination of cationic peptide and lysozyme", "setting": "E. coli [9]", "result": 0.31}, {"measurement": "Lowest [CP] showing synergy", "setting": "E. coli [9]; [10]", "result": 0.041, "unit": "µg/mL"}, {"measurement": "Lowest [Lyso] showing synergy", "setting": "E. coli [9]; [11]", "result": 15.6, "unit": "µg/mL"}, {"measurement": "FIC for combination of cationic peptide and lysozyme", "setting": "P. aeruginosa (H103)", "result": 0.50}, {"measurement": "Lowest [CP] showing synergy", "setting": "P. aeruginosa (H103); [10]", "result": 1.3, "unit": "µg/mL"}, {"measurement": "Lowest [Lyso] showing synergy", "setting": "P. aeruginosa (H103); [11]", "result": 15.6, "unit": "µg/mL"}]}]}
